This note sets out measurements from patent US10874739B2, “Near-IR light-cleavable conjugates and conjugate precursors” (The United States of America, as represented by the …, priority 2016, dated 2020).

One assay deals with MDA-MB-468 (EGFR+). The experiment in a line: Near-IR light-dependent growth inhibition, MTT, pre-incubation assay (media exchanged prior to photolysis). Type of assay: cell-based, human. To be noted: ±hν. Here is the method:
(§1) MDA-MB-468 (EGFR overexpression) and MCF-7 (normal EGFR expression) human breast cancer cell lines were obtained from the NCI DTP, DCTD Tumor Repository. MDA-MB-468 was cultured in RPMI supplemented with 2 mM L-glutamine, 11 mM D-glucose, 24 mM sodium bicarbonate, 10% heat-inactivated fetal bovine serum, 100 units/mL penicillin, 100 μg/mL streptomycin, and 0.25 μg/mL amphotericin B. MCF-7 was cultured in DMEM supplemented with 4 mM L-glutamine, 25 mM D-glucose, 44 mM sodium bicarbonate, 10% heat-inactivated fetal bovine serum, 100 units/mL penicillin, 100 μg/mL streptomycin, and 0.25 μg/mL amphotericin B. Both cell lines were grown at 37° C. in an atmosphere of 20% O2 and 5% CO2. Stock cultures were maintained in continuously exponential growth by weekly passage of the appropriate number of cells following trypsinization with 0.25% Trypsin-EDTA (0.9 mM) in PBS.
(§2) MDA-MB-468 or MCF-7 cells were seeded into 96-well plates (5×10^4 cells/well) and allowed to adhere overnight. […] Irradiation times may be calculated according to the following formula:
(§3) [formula] […] Media was removed, 100 μL of DMSO added to each well to solubilize MTT formazan, and absorbance at 550 nm was recorded using a microplate reader. Drug effects were expressed as % cell viability relative to the DMSO (no inhibitor) control. […]

Another assay has as its system MCF-7 (EGFR−). Described as above. Type of assay: cell-based, human. To be noted: ±hν. On the procedure: as §1, §2, §3

Consider `CN(C)CCOc1ccc2[nH]c(C(=O)N3C[C@@H](CCl)c4c3cc(O)c3ccccc43)cc2c1` [DuoDM, duocarmycin DM, reference compound], for which the values for the IC50 in the assay on MDA-MB-468 (EGFR+) and in the assay with MCF-7 (EGFR−) were 7 ± 0.6 pM and 13.3 ± 1.1 pM, respectively.
